These results are taken from patent publication US20100256040A1 (priority 2001, published 2010).

Where two headings read alike, the source gives them in different places. Where a SMILES comes first, the peptide text is derived from it. Where no end group is shown, it is not given here.

The nature of series [1]: Cytotoxicity measurement by MTS staining in PBMC cultures. It is filed as cell-based. The note with it: human. The protocol: At assay termination the assay plates were stained with the soluble tetrazolium-based dye MTS (CellTiter Reagent, Promega) to determine cell viability and quantify compound toxicity. MTS is metabolized by the mitochondria enzymes of metabolically active cells to yield a soluble formazan product, allowing the rapid quantitative analysis cell viability and compound cytotoxicity. […] At termination of the assay, 20 μl of MTS reagent was added per well. The wells were incubated overnight for the HIV cytoprotection assay at 37° C. The incubation intervals were chosen based on empirically determined times for optimal dye reduction in each cell type. Adhesive plate sealers were used in place of the lids, the sealed plate was inverted several times to mix the soluble formazan product and the plate was read spectrophotometrically at 490 nm with a Molecular Devices Vmax plate reader.

For another series, the system named is HIV-1. Description: microbe, parasite or virus in culture. The protocol: Fresh human blood was obtained commercially from Interstate Blood Bank, Inc. (Memphis, Tenn.). The lymphotropic clinical isolate HIV-1ROJO was obtained from a pediatric patient attending the AIDS Clinic at the University of Alabama at Birmingham. The laboratory-adapted HIV-1IIIB strain was propagated and tittered in fresh human PBMCs; pre-titered aliquots of HIV-1ROJO and Hiv-1IIIB were removed from the freezer (−80° C.) and thawed rapidly to room temperature in a biological safety cabinet immediately before use. Phytohemagglutinin (PHA-P) was obtained from Sigma (St. Louis, Mo.) and recombinant IL-2 was obtained from Amgen (San Francisco, Calif.).
Fresh human PBMCs were isolated from screened donors, seronegative for HIV and HBV. Leukophoresed blood was diluted 1:1 with Dulbecco's phosphate buffered saline (PBS), layered over 14 mL of Ficoll-Hypaque density gradient in a 50 mL centrifuge tube and then centrifuged for 30 minutes at 600×g. Banded PBMCs were aspirated from the resulting interface and subsequently washed 2× with PBS by low speed centrifugation. After the final wash, cells were enumerated by trypan blue exclusion and re-suspended at 1×10^7 cells/mL in RPMI 1640 supplemented with 15% Fetal Bovine Serum (FBS), 2 mM L-glutamine, 4 μg/mL PHA-P. The cells were allowed to incubate for 48-72 hours at 37° C. After incubation, PBMCs were centrifuged and reset in RPMI 1640 with 15% FBS, 2 mM L-glutamine, 100 U/ml penicillin, 100 μg/mL streptomycin, 10 μg/mL gentamycin, and 20 U/mL recombinant human IL-2. PBMCs were maintained in this medium at a concentration of 1-2×10^6 cells/mL with biweekly medium changes until used in the assay protocol.
For the standard PBMC assay, PHA-P stimulated cells from at least two normal donors were pooled, diluted in fresh medium to a final concentration of 1×10^6 cells/mL, and plated in the interior wells of 96 well round bottom microplate at 50 μL/well (5×10^4 cells/well). Test drug dilutions were prepared at a 2× concentration in microtiter tubes and 100 μL of each concentration was placed in appropriate wells in a standard format. 50 μl, of a predetermined dilution of virus stock was placed in each test well (final MOI≈0.1). Wells with cells and virus alone were used for virus control. Separate plates were prepared identically without virus for drug cytotoxicity studies using an XTT assay system. The PBMC cultures were maintained for seven days following infection, at which time cell-free supernate samples were collected and assayed for reverse transcriptase activity as described below.
A microtiter based reverse transcriptase (RT) reaction was utilized. See Buckheit et al., AIDS Research and Human Retroviruses 7:295-302 (1991). Tritiated thymidine triphosphate (NEN) (TTP) was resuspended in distilled H2O at 5 Ci/ml. Poly rA and oligo dT were prepared as a stock solution which was kept at −20° C. The RT reaction buffer was prepared fresh on a daily basis and consists of 125 μl 1M EGTA, 125 μl dH2O, 110 μl 10% SDS, 50 μl 1M Tris (pH 7.4), 50 μl 1M DTT, and 40 μl 1M MgCL2. These three solutions were mixed together in a ratio of 2 parts TTP, 1 part poly rA:oligo dT, and 1 part reaction buffer. Ten microliters of this reactions mixture was placed at a round bottom microtiter plate and 15 μl of virus containing supernatant was added and mixed. The plate was incubated at 37° C. in a water bath with a solid support to prevent submersion of the plate and incubated for 60 minutes. Following reaction, the reaction volume was spotted onto pieces of DE81 paper, washed 5 times 5 minutes each in a 5% sodium phosphate buffer, 2 times 1 minute each in distilled water, 2 times for 1 minute each in 70% ethanol, and then dried. Opti-Fluor-O (Packard) was added to each sample and incorporated radioactivity was quantified utilizing a Wallac 1450 MicroBeta Plus liquid scintillation counter.

The next series concerns the target T1, Tsg101 (Homo sapiens, UniProt Q99816).
T1 construct: expressed in transfected cells
Description: Yeast two-hybrid filter lift assay for β-Gal activity (Tsg101 / p6gag interaction). Format: binding. The arrangement: key to Interactions Between Tsg101 and p6gag (β-Gal activity): +: Positive β-Gal activity indicates that the p6gag wild type or mutant protein interacts with Tsg101. The note with it: for ability to bind Tsg101 protein / Tsg101-p6gag interaction (in words): yeast two-hybrid. The source says: Yeast two-hybrid assays were utilized to determine the effect of amino acid substitution mutations in the PTAP motif of HIV p6gag on the interaction between Tsg101 and p6gag. To prepare a yeast two-hybrid activation domain-Tsg101 construct, a DNA fragment encompassing the full-length coding sequence for Tsg101 according to GenBank Accession No. U82130 was obtained by PCR from a human fetal brain cDNA library and cloned into the EcoRI/Pst1 sites of the activation domain parent plasmid GADpN2 (LEU2, CEN4, ARS1, ADH1p-SV40NLS-GAL4 (768-881)-MCS (multiple cloning site)-PGK1t, AmpR, ColE1_ori).
To prepare the yeast two-hybrid DNA binding domain-HIV1 p6gag construct, a DNA fragment corresponding to the HIV1 p6 peptide derived from the HIV1.NL43 strain GAG protein was obtained by PCR from the NL43 containing plasmid R9Δapa and was cloned into the EcoRI/Sal1 sites of the binding domain parent plasmid pGBT.Q. The sequence of the amplified insert is shown in SEQ ID NO:3485. In addition, the amino acid sequence of the HIV-1NYU/BR5 GAG is provided in GenBank under Accession No. AF324493 and is listed in SEQ ID NO:3484.
The following amino acid substitution mutations were introduced by PCR into the HIV1 p6gag sequence in the yeast two-hybrid binding domain-HIV1 p6gag construct described above. The mutations were verified by DNA sequence analysis.
To test the effect of the mutations, yeast cells of the strain Y189 purchased from Clontech (ura3-52 his3*200 ade2-101 trp1-901 leu2-3,112 met gal4 gal80 URA3::GAL1p-lacZ) were co-transformed with the activation domain-Tsg101 construct and one of the binding domain-mutant p6gag constructs or the binding domain-wild type p6gag construct. Filter lift assays for β-Gal activity were conducted by lifting the transformed yeast colonies with filters, lysing the yeast cells by freezing and thawing, and contacting the lysed cells with X-Gal. […] All binding domain constructs were also tested for self-activation of β-Gal activity.

The target in another series is T2, Full length Tsg101 (Homo sapiens, UniProt Q99816).
T2 construct: expressed in transfected cells
T2 sequence (Q99816 1-390): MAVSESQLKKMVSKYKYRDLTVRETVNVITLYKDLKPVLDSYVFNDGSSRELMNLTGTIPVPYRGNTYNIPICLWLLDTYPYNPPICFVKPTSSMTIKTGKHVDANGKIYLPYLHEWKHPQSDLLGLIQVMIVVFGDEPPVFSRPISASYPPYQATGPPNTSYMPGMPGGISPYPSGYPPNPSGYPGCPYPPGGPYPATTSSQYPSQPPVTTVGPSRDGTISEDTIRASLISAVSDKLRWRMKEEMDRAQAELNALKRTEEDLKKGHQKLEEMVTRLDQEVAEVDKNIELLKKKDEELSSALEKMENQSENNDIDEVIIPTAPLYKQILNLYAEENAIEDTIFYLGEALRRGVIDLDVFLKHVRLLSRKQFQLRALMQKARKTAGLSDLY
Description: Yeast two-hybrid liquid culture β-galactosidase assay. Format: binding. Conditions: p6 point mutants. The protocol:
The interactions between TSG101 and wild-type p6gag (WT) or the p6gag PTAP mutants were further quantitated by performing liquid culture β-galactosidase assays. Cultures were grown overnight in synthetic media (-Leu, -Trp, +glucose) in 96 well plates, normalized for optical density, and lysed by addition of 6× lysis/substrate solution in 6×Z-buffer (60 mM KCl, 6 mM MgSO4, 360 mM Na2HPO4, 240 mM NaH2PO4, 6 mg/ml CPRG, 0.12 U/ml lyticase, 0.075% NP-40). Cultures were incubated for 2 hr at 37° C., clarified by centrifugation, and the optical absorbance of each supernatant was measured (575 nm). Full length Tsg101 bound wild-type p6 in the two-hybrid liquid culture assay, resulting in high levels of β-galactosidase activity (>300-fold over background). […] Each of these point mutations also arrests HIV-1 budding at a late stage (Huang et al. 1995).

The mark [2] stands for this setting: PBMC plates without virus, tetrazolium dye staining, read-out: TC50.
The mark [3] stands for this setting: fresh human PBMCs, seven days following infection, RT activity.

The term IC50 denotes the concentration at which inhibition is half-maximal. With `Cc1cn([C@H]2C[C@H](N=[N+]=[N-])[C@@H](CO)O2)c(=O)[nH]c1=O` [AZT, 3′-Azido-3′-deoxythymidine, reference compound], the CC50 at 7 days in series [1] is > 1 µM. This compound showed an IC50 in the series with HIV-1 (Human immunodeficiency virus 1, PBMC, 168 h) of 0.008 µM. For the same compound, the “Comments (anti-HIV activity)” value in the series with HIV-1 (fresh human PBMCs) was “Control; Highly”.
For the compound `C[C@H](NC(=O)[C@@H](NC(=O)[C@@H]1CCCN1C(=O)[C@H](CCC(=O)O)NC(=O)[C@@H]1CCCN1C(=O)[C@H](CCCNC(=N)N)NC(=O)[C@H](CCCNC(=N)N)NC(=O)[C@H](CCCNC(=N)N)NC(=O)[C@H](CCCNC(=N)N)NC(=O)[C@H](CCCNC(=N)N)NC(=O)[C@H](CCCNC(=N)N)NC(=O)[C@H](CCCNC(=N)N)NC(=O)[C@H](CCCNC(=N)N)NC(=O)[C@@H](N)CCCNC(=N)N)[C@@H](C)O)C(=O)N1CCC[C@H]1C(=O)N[C@@H](CCC(=O)O)C(=O)N[C@@H](CCC(=O)O)C(=O)O` [MPI-PEP1, NH2-(R)9-PEPTAPEE-COOH] (H-RRRRRRRRRPEPTAPEE-OH), the CC50 at 7 days in series [1] (setting [2]) was > 200 µM. In the series on HIV-1 (fresh human PBMCs), the “Comments (anti-HIV activity)” value is on record as “Active”. Also, the IC50 in the series on HIV-1 (setting [3]) came to 21.7 µM.
As to `CC(C)C[C@H](NC(=O)[C@H](C)NC(=O)[C@@H](NC(=O)[C@@H]1CCCN1C(=O)[C@H](CCC(=O)O)NC(=O)[C@@H]1CCCN1C(=O)[C@H](CCCNC(=N)N)NC(=O)[C@H](CCCNC(=N)N)NC(=O)[C@H](CCCNC(=N)N)NC(=O)[C@H](CCCNC(=N)N)NC(=O)[C@H](CCCNC(=N)N)NC(=O)[C@H](CCCNC(=N)N)NC(=O)[C@H](CCCNC(=N)N)NC(=O)[C@H](CCCNC(=N)N)NC(=O)[C@@H](N)CCCNC(=N)N)[C@@H](C)O)C(=O)N[C@@H](CCC(=O)O)C(=O)N[C@@H](CCC(=O)O)C(=O)O` [MPI-PEP2, NH2-(R)9-PEPTALEE-COOH] (H-RRRRRRRRRPEPTALEE-OH), the CC50 at 7 days in series [1] (setting [2]) is > 200 µM. Also, the “Comments (anti-HIV activity)” value with HIV-1 (fresh human PBMCs) is recorded as “Inactive”. Besides, the IC50 in the series with HIV-1 (setting [3]) was > 200 µM.
For the compound `C[C@H](NC(=O)[C@@H](NC(=O)[C@@H]1CCCN1C(=O)[C@H](CCC(=O)O)NC(=O)[C@@H]1CCCN1C(=O)[C@@H](N)CCCNC(=N)N)[C@@H](C)O)C(=O)N1CCC[C@H]1C(N)=O` [MPI-PEP3, NH2-RPEPTAP-CO-NH2] (H-RPEPTAP-NH2), in series [1] (setting [2]), the CC50 at 7 days was > 200 µM. Besides, the “Comments (anti-HIV activity)” value in the series on HIV-1 (fresh human PBMCs) is on record as “Inactive”. The IC50 with HIV-1 (setting [3]) is > 200 µM.
Take “p6(A9R) (LQSRPEPTRPPEESFRFGEETTTPSQKQEPIDKELYPLASLRSLFGSDPSSQ; not fully specified)”: the “ability to bind Tsg101 protein / Tsg101-p6gag interaction (in words)” value with Tsg101 was “abolishes the p6 binding affinity”. The “β-galactosidase activity (in words)” value with Full length Tsg101 is reported as “reduced β-galactosidase activity to background levels”.
On to “p6(E6G) (LQSRPGPTAPPEESFRFGEETTTPSQKQEPIDKELYPLASLRSLFGSDPSSQ; not fully specified)”, for which the “Interactions Between Tsg101 and p6gag (β-Gal activity)” value with Tsg101 (yeast Y189 co-transformed with activation domain-Tsg101 and binding domain-p6gag construct, filter lift, X-Gal) is “+”. Also, the “ability to bind Tsg101 protein / Tsg101-p6gag interaction (in words)” value is “did not result in the elimination of the Tsg101-p6gag interaction” with Tsg101 and “capable of binding” with Tsg101 (listed as E6G).
Turning to “p6(P7L) (LQSRPELTAPPEESFRFGEETTTPSQKQEPIDKELYPLASLRSLFGSDPSSQ; not fully specified)”, the “ability to bind Tsg101 protein / Tsg101-p6gag interaction (in words)” value with Tsg101 is “abolishes the p6 binding affinity”. Moreover, the “β-galactosidase activity (in words)” value with Full length Tsg101 is listed as “reduced β-galactosidase activity to background levels”.
As to “p6(P10L) (LQSRPEPTALPEESFRFGEETTTPSQKQEPIDKELYPLASLRSLFGSDPSSQ; not fully specified)”, the “ability to bind Tsg101 protein / Tsg101-p6gag interaction (in words)” value with Tsg101 is “abolishes the p6 binding affinity”. For the same compound, the “β-galactosidase activity (in words)” value with Full length Tsg101 is “reduced β-galactosidase activity to background levels”.
